{"source": "ChEMBL document CHEMBL3994601", "about": "“Polyacetylenic Oleanane-Type Triterpene Saponins from the Roots of Panax japonicus” (J Nat Prod, 2016)", "key": {"VSMC": {"system": "VSMC", "test": "Antiproliferative activity against angiotensin 2-stimulated Wistar rat VSMC after 48 hrs by MTT method", "type": "functional, cell-based"}, "PC-12": {"system": "PC-12", "test": "Neuroprotective activity against hydrogen peroxide-induced cell damage in rat PC12 cells assessed as increase in cell viability at 3.125 to 50 uM preincubated with compound followed by H2O2 challenge by MTT assay", "type": "functional, cell-based"}}, "note": "Activity calls are given as the source filed them. The rule behind the calls is not given here.", "data": [{"smiles": "COC(=O)[C@H]1O[C@@H](O[C@H]2CC[C@]3(C)[C@H]4CC=C5[C@@H]6CC(C)(C)CC[C@]6(C(=O)O[C@@H]6O[C@H](CO)[C@@H](O)[C@H](O)[C@H]6O)CC[C@@]5(C)[C@]4(C)CC[C@H]3C2(C)C)[C@H](O)[C@@H](O)[C@@H]1O", "values": [{"measurement": "growth inhibition (GI)", "setting": "VSMC", "result": "Dose-dependent effect"}]}, {"smiles": "C=C[C@@H](O)C#CC#CC[C@@H](O)[C@@H](CCCCCCC)OC(=O)[C@H]1O[C@@H](O[C@H]2CC[C@]3(C)[C@H]4CC=C5[C@@H]6CC(C)(C)CC[C@]6(C(=O)O)CC[C@@]5(C)[C@]4(C)CC[C@H]3C2(C)C)[C@H](O[C@@H]2O[C@H](CO)[C@@H](O)[C@H](O)[C@H]2O)[C@@H](O)[C@@H]1O", "values": [{"measurement": "Activity", "setting": "PC-12", "result": "Active"}]}, {"smiles": "CCCCOC(=O)[C@H]1O[C@@H](O[C@H]2CC[C@]3(C)[C@H]4CC=C5[C@@H]6CC(C)(C)CC[C@]6(C(=O)O[C@@H]6O[C@H](CO)[C@@H](O)[C@H](O)[C@H]6O)CC[C@@]5(C)[C@]4(C)CC[C@H]3C2(C)C)[C@H](O)[C@@H](O)[C@@H]1O[C@@H]1O[C@@H](CO)[C@H](O)[C@H]1O", "values": [{"measurement": "Activity", "setting": "PC-12", "result": "Active"}]}, {"smiles": "CCCCOC(=O)[C@H]1O[C@@H](O[C@H]2CC[C@]3(C)[C@H]4CC=C5[C@@H]6CC(C)(C)CC[C@]6(C(=O)O)CC[C@@]5(C)[C@]4(C)CC[C@H]3C2(C)C)[C@H](O[C@@H]2O[C@H](CO)[C@@H](O)[C@H](O)[C@H]2O)[C@@H](O)[C@@H]1O", "values": [{"measurement": "Activity", "setting": "PC-12", "result": "Active"}]}]}
